# Assay results reported in ChEMBL document CHEMBL4342423, “An isoform-selective inhibitor of tropomyosin receptor kinase A behaves as molecular glue” (Bioorg Med Chem Lett, 2020).
# Experiments:
# [1] = molecular target: T1, BDNF/NT-3 growth factors receptor (Homo sapiens, UniProt Q16620); assay: Inhibition of wild type human N-terminal GST-fusion tagged TRKB kinase domain (456 to 822 residues) expressed in baculovirus expression system by HTRF assay
# [2] = molecular target: T1, BDNF/NT-3 growth factors receptor; assay: Binding affinity to TRKB (unknown origin) assessed as dimerization by size exclusion chromatography
# T1 sequence (Q16620 whole entry, the tested form may be a part): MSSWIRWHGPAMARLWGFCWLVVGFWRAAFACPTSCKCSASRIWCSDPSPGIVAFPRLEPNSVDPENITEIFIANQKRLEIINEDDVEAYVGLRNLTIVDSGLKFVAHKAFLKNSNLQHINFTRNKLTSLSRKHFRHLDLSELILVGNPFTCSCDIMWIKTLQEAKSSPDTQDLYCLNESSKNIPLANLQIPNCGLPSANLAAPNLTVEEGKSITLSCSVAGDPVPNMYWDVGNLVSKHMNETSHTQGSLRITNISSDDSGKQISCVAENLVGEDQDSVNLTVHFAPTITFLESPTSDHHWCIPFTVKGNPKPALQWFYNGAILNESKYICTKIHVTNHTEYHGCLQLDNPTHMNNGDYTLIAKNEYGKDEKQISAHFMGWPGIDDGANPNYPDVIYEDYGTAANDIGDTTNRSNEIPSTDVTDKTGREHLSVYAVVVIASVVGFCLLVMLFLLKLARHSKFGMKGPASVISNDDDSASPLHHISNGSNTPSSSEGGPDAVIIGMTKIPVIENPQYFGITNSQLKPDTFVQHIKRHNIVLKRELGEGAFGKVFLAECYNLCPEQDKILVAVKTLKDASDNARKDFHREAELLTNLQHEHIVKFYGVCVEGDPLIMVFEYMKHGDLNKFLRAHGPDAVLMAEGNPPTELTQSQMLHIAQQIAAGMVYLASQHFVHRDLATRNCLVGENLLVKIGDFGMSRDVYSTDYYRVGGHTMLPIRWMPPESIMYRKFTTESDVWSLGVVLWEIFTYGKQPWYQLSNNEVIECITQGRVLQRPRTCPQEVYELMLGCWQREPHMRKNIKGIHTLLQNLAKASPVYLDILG
IC50 [1] [µM],Activity [2],SMILES
94,Not Active,Nc1c(N2CCN(C3CCCCC3)CC2)cc(Nc2ccc(C(=O)O)cc2)c2c1C(=O)c1ccccc1C2=O
0.00093,–,CC(C)Oc1cc(Nc2nc(N[C@@H](C)c3ccc(F)cn3)ncc2Cl)n[nH]1
